The first assay deals with Mu-type opioid receptor (Homo sapiens, UniProt P35372). Kind of assay: DRUGMATRIX: Opiate mu (OP3, MOP) radioligand binding (ligand: [3H] Diprenorphine). Format: cell membranes, CHO-K1, Membrane. To be noted: cho-k1; Not Active = under 50% inhibition at 10 µM.
Mu-type opioid receptor, sequence (P35372 whole entry): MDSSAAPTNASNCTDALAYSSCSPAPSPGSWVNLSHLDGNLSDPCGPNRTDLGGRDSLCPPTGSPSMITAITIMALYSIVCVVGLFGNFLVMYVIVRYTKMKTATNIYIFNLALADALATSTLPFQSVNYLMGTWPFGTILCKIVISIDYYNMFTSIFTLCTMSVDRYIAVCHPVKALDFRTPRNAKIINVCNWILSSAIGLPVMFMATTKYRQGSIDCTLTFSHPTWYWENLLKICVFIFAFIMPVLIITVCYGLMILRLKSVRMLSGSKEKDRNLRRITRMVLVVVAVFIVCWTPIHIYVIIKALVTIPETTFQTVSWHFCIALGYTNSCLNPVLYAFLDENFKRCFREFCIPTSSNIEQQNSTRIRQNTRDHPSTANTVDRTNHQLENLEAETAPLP
Epidermal growth factor receptor, sequence (P00533 whole entry): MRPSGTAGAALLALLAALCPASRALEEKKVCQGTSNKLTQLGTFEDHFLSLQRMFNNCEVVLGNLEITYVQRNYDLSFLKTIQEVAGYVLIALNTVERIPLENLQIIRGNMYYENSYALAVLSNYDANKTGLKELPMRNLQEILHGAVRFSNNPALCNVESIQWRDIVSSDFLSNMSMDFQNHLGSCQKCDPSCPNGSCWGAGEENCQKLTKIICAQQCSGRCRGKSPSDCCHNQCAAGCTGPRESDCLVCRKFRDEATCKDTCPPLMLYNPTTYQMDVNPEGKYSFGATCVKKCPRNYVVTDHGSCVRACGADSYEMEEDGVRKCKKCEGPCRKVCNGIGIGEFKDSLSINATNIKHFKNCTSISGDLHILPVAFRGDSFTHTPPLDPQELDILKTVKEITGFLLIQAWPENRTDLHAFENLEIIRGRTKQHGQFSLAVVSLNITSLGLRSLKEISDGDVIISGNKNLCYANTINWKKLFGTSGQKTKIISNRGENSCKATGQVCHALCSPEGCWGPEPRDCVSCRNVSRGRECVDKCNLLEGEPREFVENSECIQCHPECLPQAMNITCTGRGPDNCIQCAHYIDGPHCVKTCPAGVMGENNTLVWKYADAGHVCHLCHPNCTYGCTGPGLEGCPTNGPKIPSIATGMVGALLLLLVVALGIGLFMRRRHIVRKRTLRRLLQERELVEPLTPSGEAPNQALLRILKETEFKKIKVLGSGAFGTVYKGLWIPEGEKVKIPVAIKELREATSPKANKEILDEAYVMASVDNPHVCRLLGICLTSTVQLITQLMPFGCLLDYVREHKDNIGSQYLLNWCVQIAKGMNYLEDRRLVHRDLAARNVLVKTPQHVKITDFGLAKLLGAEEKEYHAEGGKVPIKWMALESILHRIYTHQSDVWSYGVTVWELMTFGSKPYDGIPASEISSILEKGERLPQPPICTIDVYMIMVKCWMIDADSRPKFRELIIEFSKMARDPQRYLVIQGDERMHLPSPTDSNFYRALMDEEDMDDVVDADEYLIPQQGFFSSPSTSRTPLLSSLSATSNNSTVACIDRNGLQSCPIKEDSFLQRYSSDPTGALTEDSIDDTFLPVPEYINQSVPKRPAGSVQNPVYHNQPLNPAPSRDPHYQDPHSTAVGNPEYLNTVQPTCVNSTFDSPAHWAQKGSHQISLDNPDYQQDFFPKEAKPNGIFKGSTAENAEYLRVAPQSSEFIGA
Beta-1 adrenergic receptor, sequence (P08588 whole entry): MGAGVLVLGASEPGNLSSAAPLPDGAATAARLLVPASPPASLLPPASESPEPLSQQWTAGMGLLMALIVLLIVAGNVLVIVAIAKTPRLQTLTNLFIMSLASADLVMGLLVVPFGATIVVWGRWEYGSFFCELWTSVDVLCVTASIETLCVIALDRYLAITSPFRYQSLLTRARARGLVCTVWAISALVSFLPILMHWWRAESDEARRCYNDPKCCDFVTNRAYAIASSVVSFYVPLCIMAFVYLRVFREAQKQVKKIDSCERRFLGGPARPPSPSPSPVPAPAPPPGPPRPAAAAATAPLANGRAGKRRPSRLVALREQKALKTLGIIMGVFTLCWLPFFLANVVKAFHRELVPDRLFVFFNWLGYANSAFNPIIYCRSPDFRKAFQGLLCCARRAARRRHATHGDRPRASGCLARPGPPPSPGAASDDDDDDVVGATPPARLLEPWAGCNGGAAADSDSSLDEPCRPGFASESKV
Melanocortin receptor 4, sequence (P32245 whole entry): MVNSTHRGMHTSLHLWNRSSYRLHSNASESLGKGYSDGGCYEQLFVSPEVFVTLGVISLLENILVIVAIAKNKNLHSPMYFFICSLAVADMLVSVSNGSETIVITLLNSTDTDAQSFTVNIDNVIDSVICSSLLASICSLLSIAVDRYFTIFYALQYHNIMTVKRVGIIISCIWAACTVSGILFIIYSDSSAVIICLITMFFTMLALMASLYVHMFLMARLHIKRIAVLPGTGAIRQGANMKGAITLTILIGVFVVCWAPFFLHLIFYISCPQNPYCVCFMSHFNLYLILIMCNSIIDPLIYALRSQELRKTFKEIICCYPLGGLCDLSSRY
Tyrosine-protein kinase Fyn, sequence (P06241 whole entry): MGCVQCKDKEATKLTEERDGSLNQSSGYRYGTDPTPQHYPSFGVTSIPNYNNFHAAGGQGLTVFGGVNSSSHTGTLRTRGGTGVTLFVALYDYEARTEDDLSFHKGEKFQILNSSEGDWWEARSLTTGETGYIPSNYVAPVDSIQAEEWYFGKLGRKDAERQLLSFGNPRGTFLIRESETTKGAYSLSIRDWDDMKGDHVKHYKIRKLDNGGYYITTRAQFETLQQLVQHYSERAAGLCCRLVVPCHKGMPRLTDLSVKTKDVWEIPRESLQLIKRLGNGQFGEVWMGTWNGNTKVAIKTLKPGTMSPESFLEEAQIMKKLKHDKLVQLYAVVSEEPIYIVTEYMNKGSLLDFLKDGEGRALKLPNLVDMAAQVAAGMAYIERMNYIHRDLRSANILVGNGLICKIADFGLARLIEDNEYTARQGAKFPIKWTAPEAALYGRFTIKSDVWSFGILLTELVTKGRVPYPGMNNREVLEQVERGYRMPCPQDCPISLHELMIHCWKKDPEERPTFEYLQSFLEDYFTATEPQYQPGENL
Melanocortin receptor 5, sequence (P33032 whole entry): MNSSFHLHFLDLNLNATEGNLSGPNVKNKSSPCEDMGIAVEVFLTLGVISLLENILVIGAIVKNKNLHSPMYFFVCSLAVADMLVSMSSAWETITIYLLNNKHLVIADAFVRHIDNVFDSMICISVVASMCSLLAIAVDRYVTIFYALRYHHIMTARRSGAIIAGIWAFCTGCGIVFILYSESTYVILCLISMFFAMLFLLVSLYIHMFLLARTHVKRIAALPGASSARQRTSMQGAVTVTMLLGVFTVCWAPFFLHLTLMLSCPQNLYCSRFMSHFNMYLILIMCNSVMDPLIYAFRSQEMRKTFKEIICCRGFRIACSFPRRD
As to `O=C1NC(=O)C(c2ccccc2)(c2ccccc2)N1` [PHENYTOIN], the IC50 entry was “Not Active”.
For `COc1ccc2c(c1)c(CC(=O)OCC(=O)O)c(C)n2C(=O)c1ccc(Cl)cc1` [ACEMETACIN], the IC50 result was “Not Active”.

Tested on in the next assay: not listed separately
Kind of assay: DRUGMATRIX: beta-Lactamase enzyme inhibition (substrate: Nitrocefin). The arrangement: species or system Bacillus cereus. The settings on record: Not Active = under 50% inhibition at 10 µM.
Turning to `O=C1NC(=O)C(c2ccccc2)(c2ccccc2)N1` [PHENYTOIN], the IC50 result is on record as “Not Active” and the Ki result was “Not Active”.
Regarding `COc1ccc2c(c1)c(CC(=O)OCC(=O)O)c(C)n2C(=O)c1ccc(Cl)cc1` [ACEMETACIN], the IC50 result is on record as “Not Active” and the Ki result is recorded as “Not Active”.

Another assay concerns the target T1, Cysteinyl leukotriene receptor 1 (Homo sapiens, UniProt Q9Y271). Also: in other assays of this panel Not Active means under 50% inhibition at 10 µM.
T1 sequence (Q9Y271 whole entry): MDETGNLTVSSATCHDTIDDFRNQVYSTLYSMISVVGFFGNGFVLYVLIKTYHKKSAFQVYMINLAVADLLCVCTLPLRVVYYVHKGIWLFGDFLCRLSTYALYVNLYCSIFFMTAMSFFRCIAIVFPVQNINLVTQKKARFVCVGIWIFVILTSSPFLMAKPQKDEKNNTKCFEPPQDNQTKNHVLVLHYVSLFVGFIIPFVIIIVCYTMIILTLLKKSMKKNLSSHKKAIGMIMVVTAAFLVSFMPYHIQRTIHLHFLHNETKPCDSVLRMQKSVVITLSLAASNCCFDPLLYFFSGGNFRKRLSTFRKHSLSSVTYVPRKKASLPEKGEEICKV
Experiment: not given
The settings on record: cho-k1. Format: cell membranes, CHO-K1, Membrane.
Take `O=C1NC(=O)C(c2ccccc2)(c2ccccc2)N1` [PHENYTOIN]: the IC50 result is reported as “Not Active”.
Still for that read-out and setting: as for `COc1ccc2c(c1)c(CC(=O)OCC(=O)O)c(C)n2C(=O)c1ccc(Cl)cc1` [ACEMETACIN], the entry is “Not Active”.

The target in the next assay is 5-hydroxytryptamine receptor 1B (Rattus norvegicus, UniProt P28564). Also: in other assays of this panel Not Active means under 50% inhibition at 10 µM.
5-hydroxytryptamine receptor 1B, sequence (P28564 whole entry): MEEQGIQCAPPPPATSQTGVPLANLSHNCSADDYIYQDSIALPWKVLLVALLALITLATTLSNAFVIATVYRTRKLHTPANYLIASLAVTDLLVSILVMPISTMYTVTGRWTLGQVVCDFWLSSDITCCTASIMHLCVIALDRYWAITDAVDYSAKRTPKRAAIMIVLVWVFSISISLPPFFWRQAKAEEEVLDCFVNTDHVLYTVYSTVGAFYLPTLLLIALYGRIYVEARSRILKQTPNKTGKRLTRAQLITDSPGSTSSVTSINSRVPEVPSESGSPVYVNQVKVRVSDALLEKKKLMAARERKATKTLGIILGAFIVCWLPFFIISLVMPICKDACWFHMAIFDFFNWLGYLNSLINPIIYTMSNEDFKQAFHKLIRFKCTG
Experiment: not given
Format: cell membranes, Wistar, Cerebral cortex, Membrane.
Conditions: not given
As for `O=C1NC(=O)C(c2ccccc2)(c2ccccc2)N1` [PHENYTOIN], the IC50 entry was “Not Active”.
`COc1ccc2c(c1)c(CC(=O)OCC(=O)O)c(C)n2C(=O)c1ccc(Cl)cc1` [ACEMETACIN]: the IC50 entry was “Not Active”.

For a further assay, the target named is T2, 5-hydroxytryptamine receptor 2C (Homo sapiens, UniProt P28335).
T2 sequence (P28335 whole entry): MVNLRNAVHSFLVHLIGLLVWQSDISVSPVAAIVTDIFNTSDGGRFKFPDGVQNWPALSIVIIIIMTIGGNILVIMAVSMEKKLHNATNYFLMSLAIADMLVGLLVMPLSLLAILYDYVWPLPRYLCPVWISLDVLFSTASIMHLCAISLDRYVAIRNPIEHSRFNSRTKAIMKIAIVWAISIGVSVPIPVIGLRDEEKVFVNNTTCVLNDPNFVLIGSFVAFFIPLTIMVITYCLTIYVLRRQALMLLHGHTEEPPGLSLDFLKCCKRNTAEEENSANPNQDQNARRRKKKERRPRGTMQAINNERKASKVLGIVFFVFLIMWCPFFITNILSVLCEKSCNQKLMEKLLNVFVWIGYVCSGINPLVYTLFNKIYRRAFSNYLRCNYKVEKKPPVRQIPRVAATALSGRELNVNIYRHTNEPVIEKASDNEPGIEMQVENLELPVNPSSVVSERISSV
Briefly: DRUGMATRIX: Serotonin (5-Hydroxytryptamine) 5-HT2C radioligand binding (ligand: [3H] Mesulergine). The assay is classed as cell membranes, CHO-K1, Membrane. The settings on record: cho-k1; Not Active = under 50% inhibition at 10 µM.
Regarding `O=C1NC(=O)C(c2ccccc2)(c2ccccc2)N1` [PHENYTOIN], the IC50 entry is on record as “Not Active”.
On the same count and under the same terms, the result for `COc1ccc2c(c1)c(CC(=O)OCC(=O)O)c(C)n2C(=O)c1ccc(Cl)cc1` [ACEMETACIN] reads “Not Active”.

The next assay has as its target Tyrosine-protein kinase Fyn (Homo sapiens, UniProt P06241). Briefly: biochemical. Format: cell-based, Insect cells. The settings on record: insect cells.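 Also: enzymatic inhibition of Fyn kinase activity measured with Poly(Glu:Tyr) as the phosphorylation substrate; in other assays of this panel Not Active means under 50% inhibition at 10 µM.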
As to `O=C1NC(=O)C(c2ccccc2)(c2ccccc2)N1` [PHENYTOIN], the IC50 result is listed as “Not Active”.
As to `COc1ccc2c(c1)c(CC(=O)OCC(=O)O)c(C)n2C(=O)c1ccc(Cl)cc1` [ACEMETACIN], the IC50 result is on record as “Not Active”.

Another assay addresses Melanocortin receptor 5 (Homo sapiens, UniProt P33032).
Experiment: not given
Format: cell membranes, HEK293, Membrane. To be noted: hek293.
On to `O=C1NC(=O)C(c2ccccc2)(c2ccccc2)N1` [PHENYTOIN], for which the IC50 entry was “Not Active”.
Turning to `COc1ccc2c(c1)c(CC(=O)OCC(=O)O)c(C)n2C(=O)c1ccc(Cl)cc1` [ACEMETACIN], the IC50 entry is “Not Active”.

Another assay has as its target T3, Cathepsin G (Homo sapiens, UniProt P08311).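 Also: inhibition of Cathepsin G enzyme activity, tested on an AMC-conjugated peptide substrate; in other assays of this panel Not Active means under 50% inhibition at 10 µM.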
T3 sequence (P08311 whole entry): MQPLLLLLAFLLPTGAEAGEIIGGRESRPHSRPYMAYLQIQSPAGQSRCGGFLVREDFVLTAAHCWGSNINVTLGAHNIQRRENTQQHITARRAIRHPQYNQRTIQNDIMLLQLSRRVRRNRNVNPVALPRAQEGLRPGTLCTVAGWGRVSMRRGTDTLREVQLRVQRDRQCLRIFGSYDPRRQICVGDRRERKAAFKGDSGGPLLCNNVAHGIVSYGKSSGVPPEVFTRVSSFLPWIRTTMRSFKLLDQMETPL
Experiment: not given
The assay is classed as tissue-based. The settings on record: neutrophil.
Regarding `O=C1NC(=O)C(c2ccccc2)(c2ccccc2)N1` [PHENYTOIN], the IC50 result was “Not Active”.
For the compound `COc1ccc2c(c1)c(CC(=O)OCC(=O)O)c(C)n2C(=O)c1ccc(Cl)cc1` [ACEMETACIN], the IC50 entry is on record as “Not Active”.

Another assay addresses Epidermal growth factor receptor (Homo sapiens, UniProt P00533). Briefly: DRUGMATRIX: Protein Tyrosine Kinase, EGF Receptor enzyme inhibition (substrate: Poly(Glu:Tyr)). Format: cell-based, Insect cells. To be noted: insect cells; Not Active = under 50% inhibition at 10 µM.
As for `O=C1NC(=O)C(c2ccccc2)(c2ccccc2)N1` [PHENYTOIN], the IC50 entry was “Not Active”.
Still for that read-out and setting: as for `COc1ccc2c(c1)c(CC(=O)OCC(=O)O)c(C)n2C(=O)c1ccc(Cl)cc1` [ACEMETACIN], the entry is “Not Active”.

Tested on in a further assay: not listed separately
Briefly: DRUGMATRIX: Leukotriene, BLT (LTB4) radioligand binding (ligand: [3H]LTB4). The settings on record: u-937; Not Active = under 50% inhibition at 10 µM. Format: cell membranes, Membrane.
Turning to `O=C1NC(=O)C(c2ccccc2)(c2ccccc2)N1` [PHENYTOIN], the IC50 entry is recorded as “Not Active” and the Ki result was “Not Active”.
For the compound `COc1ccc2c(c1)c(CC(=O)OCC(=O)O)c(C)n2C(=O)c1ccc(Cl)cc1` [ACEMETACIN], the IC50 entry is reported as “Not Active” and the Ki result is recorded as “Not Active”.

A further assay has as its target Melanocortin receptor 4 (Homo sapiens, UniProt P32245). Also: in other assays of this panel Not Active means under 50% inhibition at 10 µM.
Experiment: not given
The assay is classed as cell membranes, Membrane. To be noted: hek293.
As for `O=C1NC(=O)C(c2ccccc2)(c2ccccc2)N1` [PHENYTOIN], the IC50 result is reported as “Not Active”.
Still for that read-out and setting: as for `COc1ccc2c(c1)c(CC(=O)OCC(=O)O)c(C)n2C(=O)c1ccc(Cl)cc1` [ACEMETACIN], the entry is “Not Active”.

Tested on in a further assay: not listed separately
Briefly: DRUGMATRIX: Sigma2 radioligand binding (ligand: [3H] Ifenprodil). Format: cell membranes, Rattus norvegicus, Wistar, Brain, Membrane. The settings on record: Not Active = under 50% inhibition at 10 µM.
For the compound `O=C1NC(=O)C(c2ccccc2)(c2ccccc2)N1` [PHENYTOIN], the IC50 entry is recorded as “Not Active” and the Ki entry is “Not Active”.
`COc1ccc2c(c1)c(CC(=O)OCC(=O)O)c(C)n2C(=O)c1ccc(Cl)cc1` [ACEMETACIN]: the IC50 result is recorded as “Not Active” and the Ki entry is recorded as “Not Active”.

A further assay has as its target Beta-1 adrenergic receptor (Homo sapiens, UniProt P08588). Briefly: DRUGMATRIX: Adrenergic beta1 radioligand binding (ligand: [125I] Cyanopindolol). The settings on record: cho-k1; Not Active = under 50% inhibition at 10 µM. The assay is classed as cell membranes, CHO-K1, Membrane.
For `O=C1NC(=O)C(c2ccccc2)(c2ccccc2)N1` [PHENYTOIN], the IC50 entry is “Not Active”.
As for `COc1ccc2c(c1)c(CC(=O)OCC(=O)O)c(C)n2C(=O)c1ccc(Cl)cc1` [ACEMETACIN], the IC50 entry is given as “Not Active”.

In the next assay the target is T4, Caspase-1 (Homo sapiens, UniProt P29466).
T4 sequence (P29466 whole entry): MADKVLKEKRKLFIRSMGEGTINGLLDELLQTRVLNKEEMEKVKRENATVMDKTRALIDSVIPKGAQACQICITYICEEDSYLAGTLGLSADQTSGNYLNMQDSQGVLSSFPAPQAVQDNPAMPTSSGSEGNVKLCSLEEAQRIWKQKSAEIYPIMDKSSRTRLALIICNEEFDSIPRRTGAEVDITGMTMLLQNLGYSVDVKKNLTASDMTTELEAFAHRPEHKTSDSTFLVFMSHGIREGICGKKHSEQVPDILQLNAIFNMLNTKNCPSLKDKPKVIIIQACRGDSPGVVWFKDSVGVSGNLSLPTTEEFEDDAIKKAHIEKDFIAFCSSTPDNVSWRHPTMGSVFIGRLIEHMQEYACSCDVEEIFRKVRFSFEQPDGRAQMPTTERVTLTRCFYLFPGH
Experiment: not given
The arrangement: species or system Escherichia coli.
Conditions: not given
In the case of `O=C1NC(=O)C(c2ccccc2)(c2ccccc2)N1` [PHENYTOIN], the IC50 entry was “Not Active”.
Take `COc1ccc2c(c1)c(CC(=O)OCC(=O)O)c(C)n2C(=O)c1ccc(Cl)cc1` [ACEMETACIN]: the IC50 result was “Not Active”.

Tested on in a further assay: not listed separately
Kind of assay: DRUGMATRIX: Purinergic P2X radioligand binding (ligand: [3H] alpha, beta-Methylene-ATP). The assay is classed as cell membranes, Oryctolagus cuniculus, New Zealand albino, Urinary bladder, Membrane. To be noted: Not Active = under 50% inhibition at 10 µM.
As for `O=C1NC(=O)C(c2ccccc2)(c2ccccc2)N1` [PHENYTOIN], the IC50 result is “Not Active” and the Ki result is “Not Active”.
For the compound `COc1ccc2c(c1)c(CC(=O)OCC(=O)O)c(C)n2C(=O)c1ccc(Cl)cc1` [ACEMETACIN], the IC50 entry is on record as “Not Active” and the Ki result is on record as “Not Active”.

A further assay deals with T5, D(4) dopamine receptor (Homo sapiens, UniProt P21917).
T5 sequence (P21917 whole entry): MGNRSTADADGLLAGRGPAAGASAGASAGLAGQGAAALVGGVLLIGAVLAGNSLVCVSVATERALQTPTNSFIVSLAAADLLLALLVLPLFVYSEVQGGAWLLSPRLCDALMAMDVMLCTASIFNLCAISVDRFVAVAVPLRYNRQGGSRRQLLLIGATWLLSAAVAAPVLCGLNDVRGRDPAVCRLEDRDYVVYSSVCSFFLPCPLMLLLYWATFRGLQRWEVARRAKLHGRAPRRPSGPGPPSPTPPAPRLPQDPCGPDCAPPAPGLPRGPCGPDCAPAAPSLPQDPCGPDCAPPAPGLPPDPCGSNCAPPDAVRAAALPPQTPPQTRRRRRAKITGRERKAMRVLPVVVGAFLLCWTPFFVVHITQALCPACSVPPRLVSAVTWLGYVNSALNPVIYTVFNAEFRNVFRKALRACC
Briefly: DRUGMATRIX: Dopamine D4.2 radioligand binding (ligand: [3H] Spiperone). Format: cell membranes, CHO-K1, Membrane. The settings on record: cho-k1; Not Active = under 50% inhibition at 10 µM.
Take `O=C1NC(=O)C(c2ccccc2)(c2ccccc2)N1` [PHENYTOIN]: the IC50 entry is listed as “Not Active”.
The same measure, in the same setting: as for `COc1ccc2c(c1)c(CC(=O)OCC(=O)O)c(C)n2C(=O)c1ccc(Cl)cc1` [ACEMETACIN], the entry is “Not Active”.

Values taken from ChEMBL document CHEMBL1909046, “DrugMatrix in vitro pharmacology data”.
